# Assay results taken from PubChem BioAssay AID180 (DTP/NCI, 2004).
# Where “and” joins values, the source holds several entries; their conditions need not be identical. Identical values can stand only once.
# Test system: BDF1 mice, Adenocarcinoma 755 s.c., tumor weight T/C
# Test: NCI In Vivo Anticancer Drug Screen. Data for tumor model Adenocarcinoma 755 (subcutaneous) in B6D2F1 (BDF1) mice
# Conditions: endpoint: mean tumor weight, higher = larger tumour
# Procedure, shortened: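 Values express treated (T) relative to vehicle-dosed control (C) animals, based on survival or tumour size measured after compound treatment of mice bearing a transplanted tumour.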
# [1] = dose: 15.0 mg/kg/injection, schedule: Q01DX011 (ip), vehicle: methylcellulose (MC)
# [2] = dose: 31.0 mg/kg/injection, schedule: Q01DX011 (ip), vehicle: methylcellulose (MC)
# [3] = dose: 62.0 mg/kg/injection, schedule: Q01DX011 (ip), vehicle: methylcellulose (MC)
# [4] = dose: 30.0 mg/kg/injection, schedule: Q01DX011 (ip), vehicle: carboxymethylcellulose (CMC)
# [5] = dose: 60.0 mg/kg/injection, schedule: Q01DX011 (ip), vehicle: carboxymethylcellulose (CMC)
# [6] = dose: 120.0 mg/kg/injection, schedule: Q01DX011 (ip), vehicle: carboxymethylcellulose (CMC)
# [7] = dose: 240.0 mg/kg/injection, schedule: Q01DX011 (ip), vehicle: carboxymethylcellulose (CMC)
compound,measurement,setting,value
O=C1OC(c2cc(I)c(O)c(I)c2)(c2cc(I)c(O)c(I)c2)c2ccccc21,T/C,"dose: 0.38 mg/kg/injection, schedule: Q01DX011 (ip), vehicle: carboxymethylcellulose (CMC)",107 % of control
same,T/C,"dose: 0.76 mg/kg/injection, schedule: Q01DX011 (ip), vehicle: carboxymethylcellulose (CMC)",68 % of control
same,T/C,"dose: 1.56 mg/kg/injection, schedule: Q01DX011 (ip), vehicle: carboxymethylcellulose (CMC)",68 % of control
Nc1nc(SC2CCCCC2)c2[nH]cnc2n1,T/C,"dose: 1.0 mg/kg/injection, schedule: Q01DX011 (ip), vehicle: carboxymethylcellulose (CMC)",60 % of control
same,T/C,"dose: 5.0 mg/kg/injection, schedule: Q01DX011 (ip), vehicle: carboxymethylcellulose (CMC)",83 % of control
same,T/C,"dose: 20.0 mg/kg/injection, schedule: Q01DX011 (ip), vehicle: carboxymethylcellulose (CMC)",4 % of control and 9 % of control
same,T/C,"dose: 40.0 mg/kg/injection, schedule: Q01DX011 (ip), vehicle: carboxymethylcellulose (CMC)",1 % of control
same,T/C,"dose: 80.0 mg/kg/injection, schedule: Q01DX011 (ip), vehicle: carboxymethylcellulose (CMC)",1 % of control
same,T/C,"dose: 160.0 mg/kg/injection, schedule: Q01DX011 (ip), vehicle: carboxymethylcellulose (CMC)",2 % of control
O=P1(N(CCF)CCF)NCCCO1 (stereo not drawn),T/C,"dose: 3.75 mg/kg/injection, schedule: Q01DX011 (ip), vehicle: saline",62 % of control
same,T/C,"dose: 7.5 mg/kg/injection, schedule: Q01DX011 (ip), vehicle: saline",79 % of control
same,T/C,"dose: 15.0 mg/kg/injection, schedule: Q01DX011 (ip), vehicle: saline",26 % of control
C[C@H]1C[C@H]2[C@@H]3CC[C@](O)(C(=O)CO)[C@@]3(C)C[C@H](O)[C@]2(F)[C@@]2(C)C=CC(=O)C=C12,T/C,"dose: 7.0 mg/kg/injection, schedule: Q01DX011 (sc), vehicle: steriod suspending solution",39 % of control and 49 % of control
same,T/C,"dose: 30.0 mg/kg/injection, schedule: Q01DX011 (sc), vehicle: steriod suspending solution",7 % of control and 16 % of control
Nc1nc(=S)c2ncn(C3CCCC3)c2[nH]1,T/C,"dose: 3.1 mg/kg/injection, schedule: Q01DX011 (ip), vehicle: methylcellulose (MC)",37 % of control
same,T/C,"dose: 6.2 mg/kg/injection, schedule: Q01DX011 (ip), vehicle: methylcellulose (MC)",8 % of control
NC(=O)c1cc(N)nc(N)n1,T/C,[1],97 % of control
same,T/C,[2],106 % of control
same,T/C,[3],114 % of control
same,T/C,"dose: 125.0 mg/kg/injection, schedule: Q01DX011 (ip), vehicle: methylcellulose (MC)",45 % of control
C[N+](C)(C)C(C(=O)c1ccccc1)c1ccccc1 (stereo not drawn),T/C,"dose: 10.0 mg/kg/injection, schedule: Q01DX011 (ip), vehicle: carboxymethylcellulose (CMC)",124 % of control
CCCCCCCCCCCCNCCCCCCCCCCCC,T/C,"dose: 2.5 mg/kg/injection, schedule: Q01DX011 (ip), vehicle: other",41 % of control
CCCC(=O)OCC1OC(n2cnc3c(=S)nc[nH]c32)C(OC(=O)CCC)C1OC(=O)CCC (stereo not drawn),T/C,"dose: 3.0 mg/kg/injection, schedule: Q01DX011 (ip), vehicle: other",48 % of control
same,T/C,"dose: 3.12 mg/kg/injection, schedule: Q01DX011 (ip), vehicle: other",75 % of control
same,T/C,"dose: 6.0 mg/kg/injection, schedule: Q01DX011 (ip), vehicle: other",16 % of control
same,T/C,"dose: 6.25 mg/kg/injection, schedule: Q01DX011 (ip), vehicle: other",13 % of control
same,T/C,"dose: 12.0 mg/kg/injection, schedule: Q01DX011 (ip), vehicle: other",6 % of control
same,T/C,"dose: 12.5 mg/kg/injection, schedule: Q01DX011 (ip), vehicle: other",4 % of control
CCOC(=O)/C(C)=N\Nc1cc(Cl)nc(N)n1,T/C,"dose: 112.0 mg/kg/injection, schedule: Q01DX011 (ip), vehicle: methylcellulose (MC)",200 % of control
OCCNc1ncnc2c1ncn2C1CCCO1 (stereo not drawn),T/C,"dose: 50.0 mg/kg/injection, schedule: Q01DX011 (ip), vehicle: saline",174 % of control
same,T/C,"dose: 100.0 mg/kg/injection, schedule: Q01DX011 (ip), vehicle: saline",96 % of control
same,T/C,"dose: 200.0 mg/kg/injection, schedule: Q01DX011 (ip), vehicle: saline",48 % of control
Cc1ccc(/C=N/Nc2nc3c([nH]2)c(=O)n(C)c(=O)n3C)cc1,T/C,[4],95 % of control
same,T/C,[5],115 % of control
same,T/C,[6],112 % of control
same,T/C,[7],81 % of control
CCCOP(=S)(N1CC1)N1CC1,T/C,"dose: 3.3 mg/kg/injection, schedule: Q01DX011 (ip), vehicle: methylcellulose (MC)",74 % of control
same,T/C,"dose: 6.8 mg/kg/injection, schedule: Q01DX011 (ip), vehicle: methylcellulose (MC)",77 % of control
same,T/C,"dose: 13.5 mg/kg/injection, schedule: Q01DX011 (ip), vehicle: methylcellulose (MC)",40 % of control
O=C(O)C(CS(=O)(=O)O)Nc1ncnc2nc[nH]c12 (stereo not drawn),T/C,"dose: 3.1 mg/kg/injection, schedule: Q01DX011 (ip), vehicle: saline",65 % of control
same,T/C,"dose: 6.2 mg/kg/injection, schedule: Q01DX011 (ip), vehicle: saline",40 % of control
same,T/C,"dose: 12.5 mg/kg/injection, schedule: Q01DX011 (ip), vehicle: saline",40 % of control and 43 % of control
same,T/C,"dose: 18.75 mg/kg/injection, schedule: Q01DX011 (ip), vehicle: saline",38 % of control
same,T/C,"dose: 25.0 mg/kg/injection, schedule: Q01DX011 (ip), vehicle: saline",10 % of control
same,T/C,"dose: 28.12 mg/kg/injection, schedule: Q01DX011 (ip), vehicle: saline",12 % of control
same,T/C,"dose: 45.0 mg/kg/injection, schedule: Q01DX011 (ip), vehicle: saline",4 % of control
same,T/C,"dose: 75.0 mg/kg/injection, schedule: Q01DX011 (ip), vehicle: saline",7 % of control
same,T/C,"dose: 225.0 mg/kg/injection, schedule: Q01DX011 (ip), vehicle: saline",7 % of control
CSc1nc(S(C)(=O)=O)ncc1C,T/C,[1],86 % of control
same,T/C,[2],94 % of control
same,T/C,[3],154 % of control
CSc1nc(Cl)c(Br)c(Sc2nc(N)nc3nc[nH]c23)n1,T/C,"dose: 6.25 mg/kg/injection, schedule: Q01DX011 (ip), vehicle: methylcellulose (MC)",39 % of control
same,T/C,"dose: 12.0 mg/kg/injection, schedule: Q01DX011 (ip), vehicle: carboxymethylcellulose (CMC)",59 % of control
same,T/C,"dose: 12.0 mg/kg/injection, schedule: Q01DX011 (ip), vehicle: methylcellulose (MC)",29 % of control
same,T/C,"dose: 12.5 mg/kg/injection, schedule: Q01DX011 (ip), vehicle: methylcellulose (MC)",27 % of control
same,T/C,"dose: 25.0 mg/kg/injection, schedule: Q01DX011 (ip), vehicle: carboxymethylcellulose (CMC)",28 % of control
same,T/C,"dose: 25.0 mg/kg/injection, schedule: Q01DX011 (ip), vehicle: methylcellulose (MC)",33 % of control and 48 % of control
same,T/C,"dose: 50.0 mg/kg/injection, schedule: Q01DX011 (ip), vehicle: carboxymethylcellulose (CMC)",5 % of control
same,T/C,"dose: 50.0 mg/kg/injection, schedule: Q01DX011 (ip), vehicle: methylcellulose (MC)",42 % of control
same,T/C,"dose: 100.0 mg/kg/injection, schedule: Q01DX011 (ip), vehicle: methylcellulose (MC)",7 % of control
N#CCCn1cnc2c(Cl)ncnc21,T/C,"dose: 50.0 mg/kg/injection, schedule: Q01DX011 (ip), vehicle: other",85 % of control
same,T/C,"dose: 100.0 mg/kg/injection, schedule: Q01DX011 (ip), vehicle: other",157 % of control
same,T/C,"dose: 400.0 mg/kg/injection, schedule: Q01DX011 (ip), vehicle: other",98 % of control
same,T/C,"dose: 600.0 mg/kg/injection, schedule: Q01DX011 (ip), vehicle: other",63 % of control
same,T/C,"dose: 800.0 mg/kg/injection, schedule: Q01DX011 (ip), vehicle: other",94 % of control
CC(=O)NC1=C(N2CC2)C(=O)C(NC(C)=O)=C(N2CC2)C1=O,T/C,"dose: 0.02 mg/kg/injection, schedule: Q01DX011 (ip), vehicle: carboxymethylcellulose (CMC)",91 % of control
same,T/C,"dose: 0.02 mg/kg/injection, schedule: Q01DX011 (ip), vehicle: methylcellulose (MC)",71 % of control
same,T/C,"dose: 0.03 mg/kg/injection, schedule: Q01DX011 (ip), vehicle: carboxymethylcellulose (CMC)",65 % of control
same,T/C,"dose: 0.05 mg/kg/injection, schedule: Q01DX011 (ip), vehicle: methylcellulose (MC)",69 % of control
same,T/C,"dose: 0.06 mg/kg/injection, schedule: Q01DX011 (ip), vehicle: carboxymethylcellulose (CMC)",51 % of control
same,T/C,"dose: 0.1 mg/kg/injection, schedule: Q01DX011 (ip), vehicle: methylcellulose (MC)",50 % of control
same,T/C,"dose: 0.12 mg/kg/injection, schedule: Q01DX011 (ip), vehicle: carboxymethylcellulose (CMC)",21 % of control
C[C@H](N)C(=O)N[C@@H]1[C@H]2C(=C(O)C[C@@H](O)[C@@H]2O)C(=O)O[C@@H]1C,T/C,"dose: 250.0 mg/kg/injection, schedule: Q01DX011 (ip), vehicle: saline",79 % of control
same,T/C,"dose: 500.0 mg/kg/injection, schedule: Q01DX011 (ip), vehicle: saline",64 % of control
CN(C)S(=O)(=O)c1nc2nc[nH]c(=O)c2[nH]1,T/C,[4],108 % of control
same,T/C,[5],158 % of control
same,T/C,[6],101 % of control
same,T/C,[7],91 % of control
